Laboratory results published in ChEMBL document CHEMBL1201862, “PubChem BioAssay data set” (2004).
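1) Cells in 96-well plates. 2) Compound, 48 h, 5 concentrations. 3) Linear interpolation between surrounding doses. 4) Unreached endpoint = highest concentration. GI50: concentration for 50% inhibition of growth.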 Activity calls are given as the source filed them. No stated cut-off is given here; in the data, active = GI50 up to about 1.1 µM and inactive = higher.

How the values were obtained:
Test in all cases: DTP human tumour cell line panel, 48 h
[1] = test system: A498
[2] = test system: CAKI-1
[3] = test system: HCT-116
[4] = test system: LOX IMVI
[5] = test system: NCI-H226
[6] = test system: NCI/ADR-RES
[7] = test system: OVCAR-3
[8] = test system: OVCAR-4
[9] = test system: RXF 393
[10] = test system: SF-295
[11] = test system: SK-MEL-2
[12] = test system: SK-MEL-5
[13] = test system: SNB-75
[14] = test system: UACC-257
[15] = test system: TK-10
[16] = test system: ACHN
[17] = test system: SR
[18] = test system: 786-0
[19] = test system: DU-145

Measured: GI50

CC(NC(=O)C(C)NC(=O)C(N)CCP(C)(=O)O)C(=O)O (stereo unspecified)
inactive: [1] > 100 µM | [2] > 100 µM | [3] > 100 µM | [4] > 100 µM | [5] > 100 µM | [6] > 100 µM | [7] > 100 µM | [8] > 100 µM | [9] > 100 µM | [10] > 100 µM | [11] > 100 µM | [12] > 100 µM | [13] > 100 µM | [14] > 100 µM

COc1ccccc1Cc1nc(-c2ccccc2)nn(C2OC(COC(C)=O)C(OC(C)=O)C(OC(C)=O)C2OC(C)=O)c1=S (stereo unspecified)
inactive: [1] 10.2 µM | [2] 16.8 µM | [3] 10.1 µM | [4] 11.2 µM | [5] 30.5 µM | [6] 9.1 µM | [7] 21.6 µM | [8] 3.31 µM | [9] 3.13 µM | [10] 8.15 µM | [11] 11.3 µM | [12] 8.73 µM | [13] 3.08 µM | [14] 54.3 µM

CC(C)(C)N1C(C(=O)c2ccccc2)C1c1ccccc1 (stereo unspecified)
inactive: [4] > 100 µM | [5] > 100 µM | [7] > 100 µM | [8] > 100 µM | [9] > 100 µM | [12] > 100 µM | [13] > 100 µM | [15] > 100 µM | [14] > 100 µM

Cc1nc2c(sc(=S)n2-c2ccccc2)c(=O)[nH]1
inactive: [1] > 100 µM | [16] > 100 µM | [3] > 100 µM | [5] > 100 µM | [7] > 100 µM | [10] > 100 µM | [11] > 100 µM | [12] > 100 µM | [17] > 100 µM | [15] > 100 µM | [14] > 100 µM

c1c2c(cc(-n3nnc4c3CCCCCC4)c1-n1nnc3c1CCCCCC3)CCCCCC2
inactive: [1] 10.4 µM | [16] 5.71 µM | [2] 2.12 µM | [3] 5.7 µM | [4] 11.8 µM | [5] 16 µM | [7] 12.1 µM | [9] 8.07 µM | [10] 12 µM | [11] 13.1 µM | [12] 11.7 µM | [13] 12.7 µM | [17] 3.54 µM | [15] 12.6 µM | [14] 11.7 µM

CCCCCCCCC(O)c1ccc(/C=C\C(O)CCCC(=O)O)s1 (stereo unspecified)
inactive: [18] > 100 µM | [16] > 100 µM | [3] > 100 µM | [4] > 100 µM | [5] > 100 µM | [7] > 100 µM | [8] > 100 µM | [9] > 100 µM | [10] > 100 µM | [11] > 100 µM | [12] > 100 µM | [13] > 100 µM | [17] > 100 µM | [15] > 100 µM | [14] > 100 µM

CC1C(=O)C(C)C(c2cccs2)N(N=O)C1c1cccs1 (stereo unspecified)
inactive: [2] > 100 µM | [3] > 100 µM | [4] > 100 µM | [5] > 100 µM | [6] > 100 µM | [7] 9.27 µM | [8] > 100 µM | [9] > 100 µM | [10] > 100 µM | [11] > 89.9 µM | [12] > 100 µM | [13] 28.1 µM | [14] > 100 µM

COc1ccccc1C1C(Cl)C(=O)N1n1cnc2ccccc2c1=O (stereo unspecified)
inactive: [18] > 100 µM | [16] > 100 µM | [2] > 100 µM | [3] > 100 µM | [4] > 100 µM | [5] > 100 µM | [7] > 100 µM | [8] > 100 µM | [9] > 100 µM | [10] > 100 µM | [11] > 100 µM | [12] > 100 µM | [13] 40.6 µM | [17] 85.9 µM | [15] > 100 µM | [14] > 100 µM

COc1cc(C2C(C(=O)O)=C(COC(C)=O)Oc3cc4c(cc32)OCO4)cc(OC)c1OC (stereo unspecified)
inactive: [16] > 100 µM | [2] > 100 µM | [3] > 100 µM | [4] > 100 µM | [7] > 100 µM | [8] > 100 µM | [9] > 100 µM | [10] > 100 µM | [11] > 100 µM | [12] > 100 µM | [13] 41 µM | [15] > 100 µM | [14] > 100 µM

O=C1CCCC(=O)N1CCc1c[nH]c2ccccc12
inactive: [18] > 100 µM | [1] 77.3 µM | [16] > 100 µM | [2] > 100 µM | [3] > 100 µM | [5] 80.9 µM | [7] > 100 µM | [8] > 100 µM | [9] > 100 µM | [10] > 100 µM | [11] > 100 µM | [12] > 100 µM | [13] > 100 µM | [17] > 100 µM | [15] > 100 µM | [14] > 100 µM

Fc1ccccc1C1CC(C(c2ccccc2)c2ccccc2)=Nc2ccccc2S1 (stereo unspecified)
inactive: [18] 4.23 µM | [1] 6.53 µM | [16] 11.7 µM | [2] 6.25 µM | [4] 5.78 µM | [5] 13 µM | [7] 11.3 µM | [8] 10.9 µM | [9] 4.63 µM | [10] 9.48 µM | [11] 7.89 µM | [12] 11.2 µM | [13] 1.13 µM | [15] 10.7 µM | [14] 12.9 µM

Cc1cc2c(cc1C)N1Cc3c(ccc(C)c3C)N(C2)C1.Cc1cc2c(cc1C)N1Cc3cc(C)c(C)cc3N(C2)C1
inactive: [18] > 100 µM | [3] > 100 µM | [4] 86.7 µM | [5] > 100 µM | [7] > 100 µM | [8] > 100 µM | [9] 35.6 µM | [10] 89.5 µM | [12] > 100 µM | [13] > 100 µM | [15] > 100 µM

CC(C)(C)[Si](C)(C)OCC1OC(n2cnc3c(NC(=O)c4ccccc4)ncnc32)CC1O (stereo unspecified)
inactive: [18] 21.4 µM | [1] 32.9 µM | [16] 31.4 µM | [2] 49 µM | [19] 64 µM | [3] 29.7 µM | [4] 18.7 µM | [5] 24.5 µM | [6] 38.9 µM | [7] 39.9 µM | [8] 24 µM | [9] 22.3 µM | [10] 24.4 µM | [11] 27.2 µM | [12] 17.5 µM | [13] 26.7 µM | [17] 25.1 µM | [15] 58.7 µM | [14] 39.5 µM

O=NN1CCN=C1c1ccc([N+](=O)[O-])cc1
inactive: [18] > 100 µM | [16] > 100 µM | [2] > 100 µM | [3] > 100 µM | [4] > 100 µM | [5] > 100 µM | [7] > 100 µM | [8] > 100 µM | [9] > 100 µM | [10] > 100 µM | [12] > 100 µM | [13] > 100 µM | [17] > 100 µM | [15] > 100 µM | [14] > 100 µM
